Biological target: T1, parathyroid hormone cell surface receptor (bovine renal cortical plasma membranes) (Bos taurus, UniProt Q1LZF7)
T1 construct: from tissue; host or cells: bovine renal cortex plasma membranes
T1 sequence (Q1LZF7 29-589): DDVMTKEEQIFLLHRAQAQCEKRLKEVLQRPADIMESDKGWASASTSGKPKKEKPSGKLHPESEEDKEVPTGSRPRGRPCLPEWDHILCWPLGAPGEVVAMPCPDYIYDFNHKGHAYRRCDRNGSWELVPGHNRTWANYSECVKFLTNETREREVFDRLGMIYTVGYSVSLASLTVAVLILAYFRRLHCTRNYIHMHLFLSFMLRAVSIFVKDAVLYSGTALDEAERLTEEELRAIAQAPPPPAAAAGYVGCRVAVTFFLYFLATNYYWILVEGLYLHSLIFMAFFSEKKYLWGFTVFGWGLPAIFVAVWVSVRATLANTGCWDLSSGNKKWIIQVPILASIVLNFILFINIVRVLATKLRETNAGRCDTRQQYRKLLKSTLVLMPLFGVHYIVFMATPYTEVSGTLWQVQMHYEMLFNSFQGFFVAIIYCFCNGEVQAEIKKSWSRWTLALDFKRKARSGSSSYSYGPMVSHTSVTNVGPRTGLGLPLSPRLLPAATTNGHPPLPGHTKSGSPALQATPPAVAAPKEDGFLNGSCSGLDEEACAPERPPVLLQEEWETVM
Experiment: PTH binding assay (receptor assay, radioligand [Nle^8,18,^125 I-Tyr^34 ]bPTH(1-34)NH2)
Settings: radioligand 25,000 cpm, Tris-containing buffer, 30 min. at 21° C.
Protocol: PTH analogues were analysed in a new receptor assay which modified the assay reported in Rosenblatt et al., Endocrin. 107: 545-550 (1980). The binding assay used [Nle^8,18,^125 I-Tyr^34 ]bPTH(1-34)NH2which was purified by HPLC (Novapak C18, 32-35% CH3 CN in 0.1% TFA) and was stored as aliquots in 25 mM TrisHCl/1% BSA at -70° C. Bovine renal cortical plasma membranes were incubated with radioligand (25,000 cpm) in a Tris-containing buffer (250 ul) for 30 min. at 21° C. Once equilibrium was reached, bound and free radioligand were separated by centrifugation. High specific binding (85%) to bovine renal cortical membranes was obtained consistently.

- Ki: 82 ± 14 nM
SMILES: CN[C@@H](Cc1ccccc1)C(=O)N[C@@H](CCSC)C(=O)N[C@@H](Cc1c[nH]cn1)C(=O)N[C@@H](CC(N)=O)C(=O)N[C@@H](CC(C)C)C(=O)NCC(=O)N[C@@H](CCCCN)C(=O)N[C@@H](Cc1c[nH]cn1)C(=O)N[C@@H](CC(C)C)C(=O)N[C@@H](CO)C(=O)N[C@@H](CO)C(=O)N[C@@H](CCSC)C(=O)N[C@@H](CCC(=O)O)C(=O)N[C@@H](CCCNC(=N)N)C(=O)N[C@H](C(=O)N[C@@H](CCC(=O)O)C(=O)N[C@@H](Cc1c[nH]c2ccccc12)C(=O)N[C@@H](CC(C)C)C(=O)N[C@@H](CCCNC(=N)N)C(=O)N[C@@H](CCCCN)C(=O)N[C@@H](CCCCN)C(=O)N[C@@H](CC(C)C)C(=O)N[C@@H](CCC(N)=O)C(=O)N[C@@H](CC(=O)O)C(=O)N[C@H](C(=O)N[C@@H](Cc1c[nH]cn1)C(=O)N[C@@H](CC(N)=O)C(=O)N[C@@H](Cc1ccc(O)cc1)C(N)=O)C(C)C)C(C)C [[NMePhe^7,Tyr^34]bPTH(7-34)NH2]

From patent US5001223A, “Parathyroid hormone antagonists with enhanced metabolic properties” (Merck & Co., Inc., priority 1989, dated 1991)
